Experimental data as given in patent US20120059056A1, “CARBONATE DERIVATIVES AS SKIN CARE” (EASTMAN CHEMICAL COMPANY, priority 2010, published 2012).

Legend:
[1] = Similar reaction run in the absence of enzyme (toluene / pH 7 buffer); type: physicochemical; conditions: for hydrolysis in the absence of enzyme: after 3 days; for hydrolysis in the absence of the enzyme: toluene / aqueous pH 7 buffer, time not stated
Protocol: Resveratrol tris(methyl carbonate) (100 mg; 0.249 mmol) was dissolved in 2 mL of toluene. […]
Hydroxytyrosol tris(methyl carbonate) (3, R=Me, 100 mg; 0.305 mmol) was dissolved in 2 mL of toluene. […]

Solubility in solvents = type: physicochemical
[2] = biological target: Novozym 435 (immobilized Candida Antarctica lipase B) (Moesziomyces antarcticus, UniProt P41365); assay: Enzymatic hydrolysis with Novozym 435 in toluene / pH 7 buffer, HPLC analysis; conditions: for enzymatic hydrolysis: lipase, biphasic mixture of toluene and aqueous pH 7 buffer, time not stated
Novozym 435 (immobilized Candida Antarctica lipase B), sequence (P41365 26-342): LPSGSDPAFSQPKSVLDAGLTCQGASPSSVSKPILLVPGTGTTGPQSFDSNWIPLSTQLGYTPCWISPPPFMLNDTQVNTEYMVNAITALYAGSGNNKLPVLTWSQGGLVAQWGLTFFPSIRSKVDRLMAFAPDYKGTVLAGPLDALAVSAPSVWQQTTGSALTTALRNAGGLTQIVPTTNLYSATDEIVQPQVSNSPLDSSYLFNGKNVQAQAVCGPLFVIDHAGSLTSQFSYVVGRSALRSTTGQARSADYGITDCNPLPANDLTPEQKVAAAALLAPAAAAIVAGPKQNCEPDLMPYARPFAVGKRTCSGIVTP
Protocol: Resveratrol tris(methyl carbonate) (100 mg; 0.249 mmol) was dissolved in 2 mL of toluene. 2 mL of pH 7 buffer was added followed by 100 mg of Novozym 435 (immobilized Candida Antarctica lipase B).
2 mL of pH 7 buffer was added followed by 100 mg of Novozym 435 (immobilized Candida Antarctica lipase B).
Resveratrol tripalmitate (100 mg; 0.11 mmol) was dissolved in 2 mL of toluene. 2 mL of pH 7 buffer was added followed by 100 mg of Novozym 435 (immobilized Candida Antarctica lipase B).
1 mL of pH 7 buffer was added followed by 100 mg of Novozym 435 (immobilized Candida Antarctica lipase B).
Hydroxytyrosol tris(methyl carbonate) (3, R=Me, 100 mg; 0.305 mmol) was dissolved in 2 mL of toluene. 2 mL of pH 7 buffer was added followed by 100 mg of Novozym 435 (immobilized Candida Antarctica lipase B).
Hydroxytyrosol trihexanoate containing 1.9% hydroxytyrosol by HPLC analysis (100 mg; 0.22 mmol) was dissolved in 2 mL of toluene. 2 mL of pH 7 buffer was added followed by 100 mg of Novozym 435 (immobilized Candida Antarctica lipase B).

[3] = 48 h, ambient temperature (trihexanoate contained 1.9% hydroxytyrosol at start)
[4] = 24 h, ambient temperature, equal volumes of both layers
[5] = 3 days, ambient temperature, toluene/pH 7 buffer
[6] = 1 day, ambient temperature, top layer only
[7] = 22 h, ambient temperature, toluene/pH 7 buffer, equal volumes of both layers

With “4-Hydroxybenzyl Alcohol bis(butyl carbonate)” the “hydrolysis in the absence of enzyme” value ([1]; toluene/pH 7 buffer) was “no detectable hydrolysis”.
With `OCc1ccc(O)cc1` [4-hydroxybenzyl alcohol, 4-Hydroxybenzyl alcohol] the “solubility in toluene and water” value (Solubility in solvents) was “insolubility in both toluene and water”.
For `CCCCCC(=O)OCCc1ccc(OC(=O)CCCCC)c(OC(=O)CCCCC)c1` [Hydroxytyrosol trihexanoate, Hydroxytyrosol Trihexanoate, reference compound], the “3,4-di(hexanoyl)phenylethanol by HPLC analysis” value ([2]; 48 h, ambient temperature) was 18.7%, the “unchanged starting tris(methyl carbonate) or trihexanoate by HPLC analysis” value ([2]; 48 h, ambient temperature) was 72.3% and the “hydroxytyrosol by HPLC analysis” value [2, 3] was 2.5%.
With `COC(=O)OCCc1ccc(OC(=O)OC)c(OC(=O)OC)c1` [Hydroxytyrosol tris(methyl carbonate)] the “hydrolysis to hydroxytyrosol in the absence of enzyme” value ([1]; after 2 days, toluene/pH 7 buffer) was “no detectable hydrolysis to hydroxytyrosol”, the “hydroxytyrosol by HPLC analysis” value [2, 4] was 74% and the “mono- and di-carbonates by HPLC analysis” value [2, 4] was 1.5%. The “unchanged hydroxytyrosol tris(methyl carbonate) by HPLC analysis” value [2, 4] was 17%, the “mono- and di-carbonates by HPLC analysis” value ([2]; 48 h, ambient temperature) was 5% and the “unchanged starting tris(methyl carbonate) or trihexanoate by HPLC analysis” value ([2]; 48 h, ambient temperature) was 3%. The “hydroxytyrosol by HPLC analysis” value [2, 3] was 92%.
For `CCCCCCCCCCCCCCCC(=O)Oc1ccc(C=Cc2cc(OC(=O)CCCCCCCCCCCCCCC)cc(OC(=O)CCCCCCCCCCCCCCC)c2)cc1` [Resveratrol tripalmitate, Resveratrol Tripalmitate, reference compound], the “extent of enzymatic hydrolysis” value [2, 5] was “minimal hydrolysis”, the “unchanged starting tris(alkyl carbonate) or tripalmitate by HPLC analysis” value [2, 5] was 89% and the “enzymatic hydrolysis” value [2] was “minimal hydrolysis”.
In the case of `CCCCOC(=O)Oc1ccc(/C=C/c2cc(OC(=O)OCCCC)cc(OC(=O)OCCCC)c2)cc1` [Resveratrol tris(butyl carbonate)], the “hydrolysis in the absence of the enzyme” value [1] is reported as “no observed hydrolysis”, the “resveratrol bis(butyl carbonate) by HPLC analysis” value [2, 6] is reported as 41% and the “resveratrol tris(butyl carbonate) remaining by HPLC analysis” value [2, 6] is reported as 59%. The “resveratrol bis/di(alkyl carbonate) or dipalmitate by HPLC analysis” value [2, 5] was 41%, the “resveratrol by HPLC analysis” value [2, 5] was 35% and the “resveratrol mono(alkyl carbonate) by HPLC analysis” value [2, 5] was 5%. For the same molecule, the “unchanged starting tris(alkyl carbonate) or tripalmitate by HPLC analysis” value [2, 5] was 19% and the “enzymatic hydrolysis” value [2] was “undergo hydrolysis of the carbonate to afford dicarbonates, monocarbonates, and the parent triphenol”.
In the case of `COC(=O)Oc1ccc(/C=C/c2cc(OC(=O)OC)cc(OC(=O)OC)c2)cc1` [Resveratrol tris(methyl carbonate)], the “hydrolysis in the absence of enzyme” value ([1]; toluene/pH 7 buffer) is reported as “no detectable hydrolysis”, the “hydrolysis in the absence of the enzyme” value [1] is reported as “no observed hydrolysis” and the “resveratrol bis(methyl carbonate) by HPLC analysis” value [2, 7] is reported as 15.8%. The “resveratrol by HPLC analysis” value [2, 7] was 23.75%, the “resveratrol mono(methyl carbonate) by HPLC analysis” value [2, 7] was 52.9% and the “resveratrol tris(methyl carbonate) remaining by HPLC analysis” value [2, 7] was 7.0%. The “resveratrol bis/di(alkyl carbonate) or dipalmitate by HPLC analysis” value [2, 5] was 0.6%, the “resveratrol by HPLC analysis” value [2, 5] was 63.8% and the “resveratrol mono(alkyl carbonate) by HPLC analysis” value [2, 5] was 35.1%. For the same molecule, the “unchanged starting tris(alkyl carbonate) or tripalmitate by HPLC analysis” value [2, 5] was “no detectable” and the “enzymatic hydrolysis” value [2] was “undergo hydrolysis of the carbonate to afford dicarbonates, monocarbonates, and the parent triphenol”.
